Reference: doi:10.1101/2020.11.21.391136v1 (biorxiv, 2020)
Changes are numbered by the printed parent chain.

Legend:
[1] = target: T1, A3R (Hs-A3R) (Homo sapiens, UniProt P0DMS8, L264M); assay: cell-based; design: species or system HEK293A
T1 sequence (P0DMS8 1-318 L264M): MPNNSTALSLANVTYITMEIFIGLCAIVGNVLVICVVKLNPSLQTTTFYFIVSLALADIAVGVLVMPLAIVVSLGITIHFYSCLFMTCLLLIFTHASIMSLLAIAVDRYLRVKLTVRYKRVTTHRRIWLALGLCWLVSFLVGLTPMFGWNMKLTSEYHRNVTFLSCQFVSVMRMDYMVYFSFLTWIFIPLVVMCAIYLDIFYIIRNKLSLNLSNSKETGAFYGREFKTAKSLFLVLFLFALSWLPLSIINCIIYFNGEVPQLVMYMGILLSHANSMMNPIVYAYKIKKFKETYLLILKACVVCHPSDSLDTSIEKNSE

[2] = target: T2, A3R (Hs-A3R) L264T (Homo sapiens, UniProt P0DMS8, L264T); assay: cell-based; design: species or system HEK293A
T2 sequence (P0DMS8 1-318 L264T): T1 sequence (P0DMS8 1-318 L264M) with M264T

[3] = target: T3, A2BR (Homo sapiens, UniProt P29275); assay: cell-based; design: species or system HEK293A
T3 sequence (P29275 1-332): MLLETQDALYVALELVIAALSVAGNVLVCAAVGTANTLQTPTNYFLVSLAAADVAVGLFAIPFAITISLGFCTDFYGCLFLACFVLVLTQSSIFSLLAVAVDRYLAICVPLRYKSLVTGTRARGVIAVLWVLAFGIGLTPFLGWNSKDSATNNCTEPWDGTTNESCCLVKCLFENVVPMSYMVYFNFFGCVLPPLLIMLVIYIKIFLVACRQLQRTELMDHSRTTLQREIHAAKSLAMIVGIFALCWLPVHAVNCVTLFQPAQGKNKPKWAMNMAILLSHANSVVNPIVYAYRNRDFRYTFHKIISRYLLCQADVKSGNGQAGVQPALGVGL

[4] = target: T4, A3R (Hs-A3R) (Homo sapiens, UniProt P0DMS8, I253T); assay: cell-based; design: species or system HEK293A
T4 sequence (P0DMS8 1-318 I253T): T1 sequence (P0DMS8 1-318 L264M) with I253T, M264L

[5] = target: T5, A3R (Hs-A3R) (Homo sapiens, UniProt P0DMS8); assay: cell-based; design: species or system HEK293A
T5 sequence (P0DMS8 1-318): T1 sequence (P0DMS8 1-318 L264M) with M264L

[6] = target: T6, A3R (Hs-A3R) (Homo sapiens, UniProt P0DMS8, V169E); assay: cell-based; design: species or system HEK293A
T6 sequence (P0DMS8 1-318 V169E): T1 sequence (P0DMS8 1-318 L264M) with V169E, M264L

[7] = target: T7, A2AR (Homo sapiens, UniProt P29274); assay: TGF-alpha shedding assay, HEK293A; type: cell-based
T7 sequence (P29274 whole entry): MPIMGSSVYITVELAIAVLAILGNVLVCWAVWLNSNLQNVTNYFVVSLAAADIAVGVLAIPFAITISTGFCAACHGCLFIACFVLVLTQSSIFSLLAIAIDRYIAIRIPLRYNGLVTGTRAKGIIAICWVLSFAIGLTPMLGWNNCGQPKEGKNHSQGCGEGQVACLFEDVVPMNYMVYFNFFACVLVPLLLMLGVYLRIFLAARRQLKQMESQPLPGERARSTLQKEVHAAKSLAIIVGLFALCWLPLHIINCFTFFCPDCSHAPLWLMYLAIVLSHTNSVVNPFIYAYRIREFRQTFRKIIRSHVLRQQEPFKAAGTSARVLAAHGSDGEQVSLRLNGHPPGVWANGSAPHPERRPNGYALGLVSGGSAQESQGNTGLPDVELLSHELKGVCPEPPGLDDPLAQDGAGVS

[8] = target: T2, A3R (Hs-A3R) L264T; assay: cell-based; design: species or system HEK293A; remark: listed apart in the source
[9] = target: T8, A1R (Homo sapiens, UniProt P30542); design: species or system HEK293A; settings: % AP-TGFα release, not normalised to a reference agonist
T8 sequence (P30542 1-326): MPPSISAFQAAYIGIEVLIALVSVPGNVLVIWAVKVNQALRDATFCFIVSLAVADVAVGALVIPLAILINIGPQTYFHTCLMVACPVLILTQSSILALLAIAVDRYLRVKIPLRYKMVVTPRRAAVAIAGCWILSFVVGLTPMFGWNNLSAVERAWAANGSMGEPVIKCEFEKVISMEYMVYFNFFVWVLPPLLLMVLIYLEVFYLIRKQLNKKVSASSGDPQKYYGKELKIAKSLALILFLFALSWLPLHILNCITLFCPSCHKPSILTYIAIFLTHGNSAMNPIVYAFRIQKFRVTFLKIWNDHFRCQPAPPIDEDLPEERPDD

[10] = target: T9, A1R (Homo sapiens, UniProt P30542, E172V); assay: cell-based; design: species or system HEK293A; settings: HEK293-A, read-out: Emax (%)
T9 sequence (P30542 1-326 E172V): T8 sequence (P30542 1-326) with E172V

[11] = target: T10, Ss-A3R (Sus scrofa, UniProt F1SBN8); assay: TGF-alpha shedding assay, HEK293A; type: cell-based
T10 sequence (F1SBN8 1-318): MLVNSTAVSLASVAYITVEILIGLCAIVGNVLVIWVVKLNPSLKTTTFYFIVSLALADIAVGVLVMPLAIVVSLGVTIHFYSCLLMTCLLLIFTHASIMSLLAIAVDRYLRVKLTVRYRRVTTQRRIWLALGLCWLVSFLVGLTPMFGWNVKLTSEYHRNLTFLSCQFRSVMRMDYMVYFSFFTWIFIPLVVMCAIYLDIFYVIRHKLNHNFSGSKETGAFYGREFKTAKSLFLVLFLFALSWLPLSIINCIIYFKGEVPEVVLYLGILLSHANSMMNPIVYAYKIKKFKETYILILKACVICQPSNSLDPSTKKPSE

[12] = target: T11, A1R T270L (Homo sapiens, UniProt P30542, T270L); assay: cell-based; design: species or system HEK293A
T11 sequence (P30542 1-326 T270L): T8 sequence (P30542 1-326) with T270L

[13] = target: T8, A1R; assay: TGF-alpha shedding assay, HEK293A; type: cell-based
[14] = target: A2AR (Homo sapiens, UniProt P29274, M270L); assay: cell-based; design: species or system HEK293A; settings: HEK293-A, read-out: Emax (%)
Sequence of A2AR (Homo sapiens, UniProt P29274, M270L) (P29274 whole entry M270L): as the sequence (P29274 whole entry) above, with M270L counted along it

[15] = target: A2AR (Homo sapiens, UniProt P29274, T256I); assay: cell-based; design: species or system HEK293A; settings: HEK293-A, read-out: Emax (%)
Sequence of A2AR (Homo sapiens, UniProt P29274, T256I) (P29274 whole entry T256I): as the sequence (P29274 whole entry) above, with T256I counted along it

[16] = target: A2AR (Homo sapiens, UniProt P29274, E169V); design: species or system HEK293A; settings: % AP-TGFα release, not normalised to a reference agonist
Sequence of A2AR (Homo sapiens, UniProt P29274, E169V) (P29274 whole entry E169V): as the sequence (P29274 whole entry) above, with E169V counted along it

[17] = target: T7, A2AR; assay: cell-based; design: species or system HEK293A; settings: HEK293-A, read-out: Emax (%)
[18] = target: T3, A2BR; assay: TGF-alpha shedding assay, HEK293A; type: cell-based
[19] = target: T11, A1R T270L; assay: cell-based; design: species or system HEK293A; settings: HEK293-A, read-out: Emax (%)
[20] = target: T12, A1R (Homo sapiens, UniProt P30542, T257I); assay: cell-based; design: species or system HEK293A; settings: HEK293-A, read-out: Emax (%)
T12 sequence (P30542 1-326 T257I): T8 sequence (P30542 1-326) with T257I

[21] = % AP-TGFα release, not normalised to a reference agonist, agonist

Nc1ncnc2c1ncn2[C@@H]1O[C@H](CO)[C@@H](O)[C@H]1O [adenosine]
Emax (%) [1, 21]: 39 ± 2.6% | Emax (%) [2, 21]: 22 ± 0.84% | Emax (%) [3, 21]: 57 ± 1.2% | Emax (%) [4, 21]: 37 ± 2.0% | Emax (%) [5, 21]: 39 ± 0.82% | Emax (%) [6, 21]: 14 ± 4.1%

CNc1ncnc2c1ncn2[C@@H]1O[C@H](CO)[C@@H](O)[C@H]1O [m^6A]
EC50 [7]: 13000 ± 1100 nM | EC50 [8]: 6.4 ± 0.44 nM | Emax (%) [9]: 17 ± 2.2% | Emax ([1]; HEK293-A, read-out: Emax (%)): 43 ± 1.7% | Emax [10]: 32 ± 1.9% | Emax ([2]; HEK293-A, read-out: Emax (%)): 27 ± 2.2% | EC50 [11]: 39 ± 3.1 nM | EC50 [12]: 540 ± 62 nM | EC50 [13]: 840 ± 130 nM | Emax [14]: 3.5 ± 0.68% | Emax [15]: 30 ± 1.7% | Emax (%) [16]: 29 ± 2.0% | Emax [17]: 17 ± 0.57% | EC50 [18]: 51000 ± 6400 nM | Emax [19]: 15 ± 1.6% | Emax ([3]; HEK293-A, read-out: Emax (%)): 76 ± 4.7% | Emax ([4]; HEK293-A, read-out: Emax (%)): 41 ± 2.2% | Emax ([5]; HEK293-A, read-out: Emax (%)): 43 ± 2.1% | Emax ([6]; HEK293-A, read-out: Emax (%)): 22 ± 2% | Emax [20]: 42 ± 1.2%
